Data on one compound can be found in patent US20240139165A1, “METHODS AND COMPOSITIONS FOR TREATMENT OF INFLAMMATORY BOWEL DISEASE” (SHENZHEN HIGHTIDE BIOPHARMACEUTICAL, LTD., priority 2017, published 2024).

The data set is described as follows: Single-dose pharmacokinetic study of berberine and fish oil in rats. As to conditions: SD rats, single oral, BBR 100 mg/kg. It counts as in vivo, male Sprague-Dawley (SD) rats. From the text:
In the single-dose pharmacokinetic study in rats, after 7-day acclimation, healthy male Sprague-Dawley (SD) rats with the body weight of 210-250 g were randomized into six groups as follows (3 rats per group). Fish oil used in this study containing 47.8% (w/w) EPA-ethyl ester and 39.0% (w/w) DHA-ethyl ester. [table] The rats in each group were orally treated with the suspensions of the corresponding testing articles indicated above in 0.5% gum tragacanth respectively. Blood samples of the test animals were collected pre-dose and at the time points of 15 min, 30 min, 1 h, 1.5 h, 2 h, 4 h, 8 h, and 24 h post-dose. The collected blood samples (approximately 400 μL) were placed into tubes containing heparin sodium and centrifuged at 8000 rpm for 6 minutes at 4° C. to separate plasma. The obtained plasma from each sample was stored at −80° C. until being analyzed. Plasma concentrations of BBR and EPA were determined, and PK parameters were calculated.

SMILES strings stand for the structures.

As to `COc1ccc2cc3[n+](cc2c1OC)CCc1cc2c(cc1-3)OCO2` [BBR, 5,6-dihydro-9,10-dimethoxybenzo[g]-1,3-benzodioxolo[5,6-a]quinolizinium], the “Cmax of BBR” value was 4.23 ± 5.46 ng/mL, the “Ratio of AUC0-t of BBR compared to BBR group” value amounted to 1.00 and the “Ratio of Cmax of BBR compared to BBR group” value was 1.00. Moreover, the AUC(0-t) (male, Sprague-Dawley, rat, plasma, read-out: AUC0-t of BBR) was 45.8 ± 60.1 ng·h/mL.
